pKi: −log10 of the molar value.

For the assay, the target named is Bcl-2 (Homo sapiens (Human), UniProt P10415). The assay is described as follows: Time Resolved-Fluorescence Resonance Energy Transfer (TR-FRET) Bcl-2 binding assay with F-Bak peptide probe. The note with it: GST-Bcl-2 1 nM, F-Bak peptide probe 100 nM, Tb-anti-GST antibody 1 nM; Ki by Wang's equation. As for the experimental part:
Determination of the utility of compounds having Formula (I) as binders to and inhibitors of anti-apoptotic Bcl-2 proteins was performed using the Time Resolved-Fluorescence Resonance Energy Transfer (TR-FRET) Assay. Tb-anti-GST antibody was purchased from Invitrogen (Catalog No. PV4216).
Representative compounds were serially diluted in dimethyl sulfoxide (DMSO) starting at 50 μM (2× starting concentration; 10% DMSO) and 10 μL were transferred into a 384-well plate. The samples are then mixed on a shaker for 1 minute and incubated for an additional 3 hours at room temperature. For each assay, the probe/antibody and protein/probe/antibody were included on each assay plate as negative and positive controls, respectively. Fluorescence was measured on the ENVISION plate reader (Perkin Elmer) using a 340/35 nm excitation filter and 520/525 (F-Bak peptide) and 495/510 nm (Tb-labeled […] antibody) emission filters Inhibition constants (Ki) are shown in TABLE 2 below and were determined using Wang's equation (Wang Z.-X. An Exact Mathematical Expression For Describing Competitive Binding Of Two Different Ligands To A Protein Molecule. FEBS Lett. 1995, 360:111-4).
The inhibition constant (Ki) is the dissociation constant of an enzyme-inhibitor complex or a protein/small molecule complex, wherein the small molecule is inhibiting binding of one protein to another protein. So a large K, value indicates a low binding affinity and a small Ki value indicates a high binding affinity.
The compounds are therefore expected to have utility in treatment of diseases during which anti-apoptotic Bcl-2 protein is expressed.

Sequence of Bcl-2 (P10415 whole entry): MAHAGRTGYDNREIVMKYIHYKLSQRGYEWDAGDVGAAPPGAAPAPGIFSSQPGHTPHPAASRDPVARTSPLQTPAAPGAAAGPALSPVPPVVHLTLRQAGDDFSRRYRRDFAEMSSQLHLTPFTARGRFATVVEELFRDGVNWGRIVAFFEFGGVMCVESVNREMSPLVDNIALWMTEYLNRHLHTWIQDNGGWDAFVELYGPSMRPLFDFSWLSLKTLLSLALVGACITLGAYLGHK

Compound `COC1(CC2CCCCC2)CCN(c2ccc(C(=O)NS(=O)(=O)c3cc([N+](=O)[O-])c(N[C@H](CCN(C)C)CSc4ccccc4)s3)cc2)CC1` [Example 1, 4-[4-(cyclohexylmethyl)-4-methoxypiperidin-1-yl]-N-{[5-({(1R)-3-(dimethylamino)-1-[(phenylthio)methyl]propyl}amino)-4-nitrothien-2-yl]sulfonyl}benzamide] had a negative logarithm of the Ki (pKi) of 7.29.
As for `COC1(Cc2cccc(C)c2)CCN(c2ccc(C(=O)NS(=O)(=O)c3cc([N+](=O)[O-])c(N[C@H](CCN(C)C)CSc4ccccc4)s3)cc2)CC1` [Example 2, N-{[5-({(1R)-3-(dimethylamino)-1-[(phenylthio)methyl]propyl}amino)-4-nitrothien-2-yl]sulfonyl}-4-[4-methoxy-4-(3-methylbenzyl)piperidin-1-yl]benzamide], the figure is 7.08.
With `CN(C)CC[C@H](CSc1ccccc1)Nc1sc(S(=O)(=O)NC(=O)c2ccc(N3CCN(CC=C(c4ccccc4)c4ccccc4)CC3)cc2)cc1[N+](=O)[O-]` [Example 3, N-{[5-({(1R)-3-(dimethylamino)-1-[(phenylthio)methyl]propyl}amino)-4-nitrothien-2-yl]sulfonyl}-4-[4-(3,3-diphenylprop-2-enyl)piperazin-1-yl]benzamide] the figure was 7.29.
`CC(=O)N(CCSc1ccccc1)C1CCN(S(=O)(=O)NC(=O)c2ccc(N3CCN(Cc4ccccc4-c4ccc(Cl)cc4)CC3)cc2)CC1` [Example 5, N-[(4-{acetyl[2-(phenylthio)ethyl]amino}piperidin-1-yl)sulfonyl]-4-{4-[(4′-chloro-1,1′-biphenyl-2-yl)methyl]piperazin-1-yl}benzamide]: the pKi is 6.75. This pKi is 0.54 log units lower than that of the compound before.
`CN(CCSc1ccccc1)C1CCN(S(=O)(=O)NC(=O)c2ccc(N3CCN(Cc4ccccc4-c4ccc(Cl)cc4)CC3)cc2)CC1` [Example 6, 4-{4-[(4′-chloro-1,1′-biphenyl-2-yl)methyl]piperazin-1-yl}-N-[(4-{methyl[2-(phenylthio)ethyl]amino}piperidin-1-yl)sulfonyl]benzamide] had a negative-log Ki (pKi) of 6.15.
With `CC(C)N(C)CC[C@H](CSc1ccccc1)Nc1sc(S(=O)(=O)NC(=O)c2ccc(N3CCN(Cc4ccccc4-c4ccc(Cl)cc4)CC3)cc2)cc1[N+](=O)[O-]` [Example 7, 4-{4-[(4′-chloro-1,1′-biphenyl-2-yl)methyl]piperazin-1-yl}-N-{[5-({(1R)-3-[isopropyl(methyl)amino]-1-[(phenylthio)methyl]propyl}amino)-4-nitrothien-2-yl]sulfonyl}benzamide] the figure was 10.08.
With `CC(C)N(C)CC[C@H](CSc1ccccc1)Nc1sc(S(=O)(=O)NC(=O)c2ccc(N3CCN(CC4=C(c5ccc(Cl)cc5)CCCC4)CC3)cc2)cc1[N+](=O)[O-]` [Example 8, 4-(4-{[2-(4-chlorophenyl)cyclohex-1-en-1-yl]methyl}piperazin-1-yl)-N-{[5-({(1R)-3-[isopropyl(methyl)amino]-1-[(phenylthio)methyl]propyl}amino)-4-nitrothien-2-yl]sulfonyl}benzamide] the figure was 10.19; with `CC(C)N(C)CC[C@H](CSc1ccccc1)Nc1sc(S(=O)(=O)NC(=O)c2ccc(N3CCN(CC4=C(c5ccc(Cl)cc5)CCC(C)(C)C4)CC3)cc2)cc1[N+](=O)[O-]` [Example 9, 4-(4-{[2-(4-chlorophenyl)-5,5-dimethylcyclohex-1-en-1-yl]methyl}piperazin-1-yl)-N-{[5-({(1R)-3-[isopropyl(methyl)amino]-1-[(phenylthio)methyl]propyl}amino)-4-nitrothien-2-yl]sulfonyl}benzamide], 9.51; with `CC(=O)/N=c1\sc(S(=O)(=O)NC(=O)c2ccc(N3CCN(Cc4ccccc4-c4ccc(Cl)cc4)CC3)cc2)nn1C` [Example 10, N-{[(5Z)-5-(acetylimino)-4-methyl-4,5-dihydro-1,3,4-thiadiazol-2-yl]sulfonyl}-4-{4-[(4′-chloro-1,1′-biphenyl-2-yl)methyl]piperazin-1-yl}benzamide], 6.13.
As for `CC(=O)Nc1nc(C)c(S(=O)(=O)NC(=O)c2ccc(N3CCN(Cc4ccccc4-c4ccc(Cl)cc4)CC3)cc2)s1` [Example 11, N-{[2-(acetylamino)-4-methyl-1,3-thiazol-5-yl]sulfonyl}-4-{4-[(4′-chloro-1,1′-biphenyl-2-yl)methyl]piperazin-1-yl}benzamide], the figure is 6.75; as for `O=C(NCc1ccc(S(=O)(=O)NC(=O)c2ccc(N3CCN(Cc4ccccc4-c4ccc(Cl)cc4)CC3)cc2)s1)c1ccccc1` [Example 12, N-({5-[(benzoylamino)methyl]thien-2-yl}sulfonyl)-4-{4-[(4′-chloro-1,1′-biphenyl-2-yl)methyl]piperazin-1-yl}benzamide], 6.41.
With `O=C(NS(=O)(=O)c1c(Cl)nc2sccn12)c1ccc(N2CCN(Cc3ccccc3-c3ccc(Cl)cc3)CC2)cc1` [Example 13, 4-{4-[(4′-chloro-1,1′-biphenyl-2-yl)methyl]piperazin-1-yl}-N-[(6-chloroimidazo[2,1-b][1,3]thiazol-5-yl)sulfonyl]benzamide], the pKi is 6.41.
With `O=C(NS(=O)(=O)N1CCOCC1)c1ccc(N2CCN(Cc3ccccc3-c3ccc(Cl)cc3)CC2)cc1` [Example 14, 4-{4-[(4′-chloro-1,1′-biphenyl-2-yl)methyl]piperazin-1-yl}-N-(morpholin-4-ylsulfonyl)benzamide] the figure was 6.39; with `Cc1nc(C)c(S(=O)(=O)NC(=O)c2ccc(N3CCN(Cc4ccccc4-c4ccc(Cl)cc4)CC3)cc2)s1` [Example 15, 4-{4-[(4′-chloro-1,1′-biphenyl-2-yl)methyl]piperazin-1-yl}-N-[(2,4-dimethyl-1,3-thiazol-5-yl)sulfonyl]benzamide], 6.55.
As for `O=C(NS(=O)(=O)c1csc(C(F)(F)F)c1-c1ccccc1)c1ccc(N2CCN(Cc3ccccc3-c3ccc(Cl)cc3)CC2)cc1` [Example 16, 4-{4-[(4′-chloro-1,1′-biphenyl-2-yl)methyl]piperazin-1-yl}-N-{[4-phenyl-5-(trifluoromethyl)thien-3-yl]sulfonyl}benzamide], the figure is 7.42; as for `Cc1c(S(=O)(=O)NC(=O)c2ccc(N3CCN(Cc4ccccc4-c4ccc(Cl)cc4)CC3)cc2)sc2ccc(F)cc12` [Example 17, 4-{4-[(4′-chloro-1,1′-biphenyl-2-yl)methyl]piperazin-1-yl}-N-[(5-fluoro-3-methyl-1-benzothien-2-yl)sulfonyl]benzamide], 6.45.
`O=C(NS(=O)(=O)c1nc2ccccc2s1)c1ccc(N2CCN(Cc3ccccc3-c3ccc(Cl)cc3)CC2)cc1` [Example 18, N-(1,3-benzothiazol-2-ylsulfonyl)-4-{4-[(4′-chloro-1,1′-biphenyl-2-yl)methyl]piperazin-1-yl}benzamide] gave a negative-log Ki (pKi) of 6.89.
As for `O=C(NS(=O)(=O)c1cccs1)c1ccc(N2CCN(Cc3ccccc3-c3ccc(Cl)cc3)CC2)cc1` [Example 19, 4-{4-[(4′-chloro-1,1′-biphenyl-2-yl)methyl]piperazin-1-yl}-N-(thien-2-ylsulfonyl)benz amide], the figure is 6.63; as for `Cc1cc(C)n2nc(S(=O)(=O)NC(=O)c3ccc(N4CCN(Cc5ccccc5-c5ccc(Cl)cc5)CC4)cc3)nc2n1` [Example 20, 4-{4-[(4′-chloro-1,1′-biphenyl-2-yl)methyl]piperazin-1-yl}-N-[(5,7-dimethyl[1,2,4]triazolo[1,5-a]pyrimidin-2-yl)sulfonyl]benzamide], 7.32.
As for `COC(=O)c1ccc(S(=O)(=O)NC(=O)c2ccc(N3CCN(Cc4ccccc4-c4ccc(Cl)cc4)CC3)cc2)n1C` [Example 22, methyl 5-{[(4-{4-[(4′-chloro-1,1′-biphenyl-2-yl)methyl]piperazin-1-yl}benzoyl)amino]sulfonyl}-1-methyl-1H-pyrrole-2-carboxylate], the figure is 6.73; as for `Cc1cc(-c2oncc2S(=O)(=O)NC(=O)c2ccc(N3CCN(Cc4ccccc4-c4ccc(Cl)cc4)CC3)cc2)n(C)n1` [Example 23, 4-{4-[(4′-chloro-1,1′-biphenyl-2-yl)methyl]piperazin-1-yl}-N-{[5-(1,3-dimethyl-1H-pyrazol-5-yl)isoxazol-4-yl]sulfonyl}benzamide], 6.35; as for `Cc1nsc(S(=O)(=O)NC(=O)c2ccc(N3CCN(Cc4ccccc4-c4ccc(Cl)cc4)CC3)cc2)c1Cl` [Example 24, 4-{4-[(4′-chloro-1,1′-biphenyl-2-yl)methyl]piperazin-1-yl}-N-[(4-chloro-3-methylisothiazol-5-yl)sulfonyl]benzamide], 6.47.
As for `Cc1c(S(=O)(=O)NC(=O)c2ccc(N3CCN(Cc4ccccc4-c4ccc(Cl)cc4)CC3)cc2)sc2ccc(Br)cc12` [Example 25, N-[(5-bromo-3-methyl-1-benzothien-2-yl)sulfonyl]-4-{4-[(4′-chloro-1,1′-biphenyl-2-yl)methyl]piperazin-1-yl}benzamide], the figure is 6.43.
`O=C(NS(=O)(=O)c1ccc(/C=C/c2ncon2)s1)c1ccc(N2CCN(Cc3ccccc3-c3ccc(Cl)cc3)CC2)cc1` [Example 26, 4-{4-[(4′-chloro-1,1′-biphenyl-2-yl)methyl]piperazin-1-yl}-N-({5-[(E)-2-(1,2,4-oxadiazol-3-yl)vinyl]thien-2-yl}sulfonyl)benzamide] showed a pKi of 6.41.

As a reminder, the pKi is the negative decadic logarithm of the Ki, by convention in mol/L. Low values mean a large Ki, high ones a small Ki.

Values taken from patent publication US9156856B2, “Apoptosis-inducing agents for the treatment of cancer and immune and autoimmune diseases” (AbbVie Inc., priority 2009, dated 2015).
